Experimental data taken from patent publication US20230416196A1, “DIMER OF BIGUANIDINES AND THEIR THERAPEUTIC USES” (INSTITUT CURIE, priority 2020, published 2023).

What was measured:
[1] = tested on: inflammatory genes in activated MDM; test: RNA-seq gene expression in activated MDM; type: cell-based, human; conditions: LCC-12 10 μM; FIG. 4A-C
Procedure: Cell culture. Peripheral blood samples were collected from distinct healthy donors (Etablissement Français du Sang). Pan monocytes were isolated by negative magnetic sorting using microbeads according to the manufacturer's instructions (Miltenyi Biotec, 130-096-537), and cultured in RPMI 1640 supplemented with glutamine (Thermo Fisher Scientific, 61870010), 10% fetal bovine serum and exposed to granulocyte-macrophage colony-stimulating factor (GM-CSF, Miltenyi Biotec, 130-093-866, 100 ng/mL) to induce differentiation into macrophages (MDM). […]
RNA-seq. […] Sequencing was carried out on a NovaSeq 6000 instrument from Illumina based on a 2×100 cycle mode (paired-end reads, 100 bases). Raw sequencing reads were first checked for quality with Fastqc (0.11.8) and trimmed for adapter sequences with the trimGalore (0.6.2) software. Trimmed reads were then aligned on the human hg38 reference genome using the STAR mapper (2.6.1b), up to the generation of a raw count table per gene (GENCODE annotation v29). […] Raw data from (Fernandes et al., 2016, 7, e00027-16; Gongalves et al., 2020, Nat. Commun. 11, 2282) were downloaded from the NCBI Short Read Archive under records PRJNA528433 and PRJNA290995 and processed as described above. […] Differential expression was assessed with the limma voom framework (v 3.44.3) (Ritchie et al., 2015, Nucleic Acids Res. 43, e47). […]

HMLER CD44^high/CD24^low = test: Cell viability assay (CellTiter-Blue) on breast cancer stem cell model HMLER CD44high/CD24low; type: cell-based, human
Procedure: Cell viability assay (IC50). Cell viability assay was carried out by plating 1000 cells/well in 96-well plates. Cells were treated for 72 h in a range between to 25 nM and […] using serial dilutions. The inventors followed the manufacturer's protocol. In brief, CellTiter-Blue® reagent (G8081, Promega) was added after 72 h treatment and cells were incubated for 3 h before recording fluorescence intensities (λex. 560/20 nm; λem. 590/10 nm) using a Perkin Elmer Wallac 1420 Victor2 Microplate Reader.
Cell culture. MCF7 (ATCC) cells, DU-145 (ATCC) cells and FC1245 cells were cultured in Dulbecco's Modified Eagle Medium GlutaMAX (DMEM, ThermoFisher Scientific, 61965059) supplemented with 10% Fetal Bovine Serum (FBS, Gibco, 10270-106) and Penicillin-Streptomycin mixture (BioWhittaker/Lonza, DE17-602E) unless stated otherwise. Primary lung circulating tumor cells (Celprogen, 36107-34CTC, Lot 219411) were grown using stem cell complete media (Celprogen, M36102-29PS) until the third passage. Circulating cancer cells were grown in stem cell ECM T75-flasks (Celprogen, E36102-29-T75) and ECM 6-well plates (Celprogen, E36102-29-6Well). HMLER cells ([…]) naturally repressing E-cadherin, obtained from human mammary epithelial cells infected with a retrovirus carrying hTERT, SV40 and the oncogenic allele H-rasV12, and HMLER CD44 and TFRC ko clones were cultured in DMEM/F12 (Thermo Fisher Scientific, 31331093) supplemented with 10% FBS (Thermo Fisher Scientific, 10270106), 10 μg/mL insulin (Sigma-Aldrich, 10516), 0.5 μg/mL hydrocortisone (Sigma-Aldrich, H0888) and 0.5 μg/mL puromycin (Life Technologies, A11138-02), unless stated otherwise. HMLER CD44^high cells were also supplemented with 10 ng/mL EGF (Miltenyi Biotech, 130-097-750).

mice challenged with LPS = test: Murine model of LPS-induced severe inflammation; type: in vivo, BALB/c mice; conditions: LPS 20 mg/kg IP; LCC-12 0.3 mg/kg IP; dexamethasone 10 mg/kg PO as comparator; FIG. 4D
Procedure: Murine model of LPS-induced severe inflammation. Animal work was conducted at Fidelta Ltd according to 2010/63/EU and National legislation regulating the use of laboratory animals in scientific research and for other purposes (Official Gazette 55/13). An Institutional Committee on Animal Research Ethics (CARE-Zg) oversaw that animal-related procedures were not compromising the animal welfare. LPS (Sigma-Aldrich, L2630, 20 mg/kg) was injected intraperitoneally to male BALB/c mice (8 weeks-old). LCC-12 (0.3 mg/kg, IP, n=10) or vehicle (0.9% NaCl, 10 mL/kg, IP, n=10) were injected 2 h prior LPS challenge, then 24 h, 48 h, 72 h and 96 h post challenge. Dexamethasone (10 mg/kg, PO, n=10) was given 1 h prior LPS challenge. Incidence of mortality was monitored every 4 h up to 48 h, then twice daily.

SMILES: N=C(N)NC(=N)NCCCCCCCCCCCCNC(=N)NC(=N)N [LCC-12, lipophilic copper clamp C12]
- expression of inflammatory genes compared to activated MDM [1]: reduced expression of a subset of inflammatory genes
- improved IC50 compared with metformin (HMLER CD44^high/CD24^low; HMLER CD44high/CD24low): more than 2800 fold
- IC50 (HMLER CD44^high/CD24^low; Homo sapiens, cell viability, 72 h treatment, read-out: IC50 against HMLER CD44^high/CD24^low): 8 µM
- survival of mice challenged with LPS (mice challenged with LPS): increased the survival of mice challenged with LPS to a similar extent than dexamethasone
